Experiments:
[1] = system: WT mice; test: Prevention of caerulein-induced acute pancreatitis in WT mice; format: in vivo, mouse; conditions: evaluated 24 h after first caerulein dose, Dabigatran 200 mg/kg×2, Camostat 300 mg/kg×2
Method: (§1) The secretagogue overstimulation model of experimental pancreatitis with caerulein, is a commonly used AP model (Zhan et al., Gastrointestinal Liver Physiology, 311:G343-55 (2016)). This model was accomplished by repeated intraperitoneal (ip) injections of caerulein (100 μg/kg/hour) once per hour (Huang et al., Gastroenterology, 144:202-10 (2013)).
Camostat mesilate (Santa Cruz), Dabigatran etexilate mesylate (a prodrug for Dabigatran, TRC Canada), and Ximelagatran (a prodrug for Melagatran, Sigma-Aldrich) were dissolved in 10% β-Cyclodextrin (Sigma-Aldrich). […]
Pancreas edema, serum amylase, and histology were evaluated as described elsewhere (Gaiser et al., Gut, 60:1379-88 (2011); Huang et al., Gastroenterology, 144:202-10 (2013); and Daniluk et al., J. Clin. Invest., 122:1519-28 (2012)).
The effect of Dabigatran on experimental pancreatitis in WT mice was evaluated. Dabigatran and Camostat were administrated by oral gavage two hours before the initiation of AP by six hourly injections of caerulein (FIG. 1A). Twenty-four hours after the first dose of caerulein, the severity of pancreatitis was evaluated.

[2] = system: PRSS1R122H mice; test: Prevention of caerulein-induced pancreatitis in mouse model of human hereditary pancreatitis (PRSS1R122H); format: in vivo; conditions: Dabigatran 200 mg/kg×2, Camostat 300 mg/kg×2
Method: as §1
A model of human hereditary pancreatitis (HP) was developed by using a bacterial artificial chromosome (BAC, clone RP11-701D14) harboring the full-length human PRSS1 gene containing an intact PRSS1 promoter, all exons and introns, and the 3′ untranslated region for faithful recapitulation of the gene's expression. An R122H point mutation was introduced by two rounds of genetic targeting using Galk-mediated recombineering (PRSS1^R122H) (Warming et al., Nucleic Acids Research, 33:e36 (2005)). This transgene expressed PRSS1^R122H at ˜50% of the endogenous human PRSS1 protein level as detected by Western blot (WB) and real-time RT-PCR. Taking into account that the PRSS1^R122H mutation was heterozygous, and that mutated PRSS1 constituted 50% of the total PRSS1 in human HP, this model does expressPRSS1^R122H at a physiologically relevant level. In this mouse model, spontaneous AP and CP were not observed. However, these mice developed more severe AP following the induction of AP with caerulein injection. More importantly, all of the PRSS1^R122H mice, but none of the WT mice, developed CP with an observed histopathology similar to that seen in human HP (Singhi et al., Am. J. Surg. Path., 38:346-53 (2014)). Therefore, this model faithfully recapitulates the histological changes observed during human HP (Singhi et al., Am. J. Surg. Path., 38:346-53 (2014)). […]
(§2) Pancreas edema, serum amylase, and histology were evaluated as described elsewhere (Gaiser et al., Gut, 60:1379-88 (2011); Huang et al., Gastroenterology, 144:202-10 (2013); and Daniluk et al., J. Clin. Invest., 122:1519-28 (2012)). […]

[3] = system: PRSS1R122H mice; test: Therapeutic administration after AP induction in PRSS1R122H mice, progression to chronic pancreatitis; format: in vivo, mouse; conditions: administered four hours after AP induction by caerulein, treated for additional five days, Dabigatran 200 mg/kg Bid, Camostat 300 mg/kg Bid
Method: as §1
A model of human hereditary pancreatitis (HP) was developed by using a bacterial artificial chromosome (BAC, clone RP11-701D14) harboring the full-length human PRSS1 gene containing an intact PRSS1 promoter, all exons and introns, and the 3′ untranslated region for faithful recapitulation of the gene's expression. An R122H point mutation was introduced by two rounds of genetic targeting using Galk-mediated recombineering (PRSS1^R122H) (Warming et al., Nucleic Acids Research, 33:e36 (2005)). This transgene expressed PRSS1^R122H at ˜50% of the endogenous human PRSS1 protein level as detected by Western blot (WB) and real-time RT-PCR. […]
as §2

[4] = system: mutant trypsinogen mice; test: Prevention of pancreatitis in mouse model expressing active trypsin (PACE-trypsinogen); format: in vivo; conditions: pretreated two hours prior to caerulein and seven hours after final caerulein injection, Dabigatran 200 mg/kg×2, Camostat 300 mg/kg×2, Ximelagatran 40 mg/kg×2
Method: as §1
A PACE-activated trypsinogen model in which the original enteropeptidase cleavage site (DDDDK) was replaced by a PACE cleavage site (RTKR), using site-specific mutagenesis of the wild type rat trypsinogen cDNA, was produced (Ji et al., J. Biol. Chem., 284:17488-98 (2009)). PACE, paired basic amino acid cleaving enzyme (also called furin), is a mammalian propeptide-processing endoprotease that is present in the trans-Golgi network of virtually all cells. To target expression of PACE-trypsinogen specifically to pancreatic acinar cells, conditional LGL (loxP-GFP-stop-loxP)-PACE-trypsinogen transgenic mice were bred with full-length, acinar specific, elastase promoter-regulated Cre transgenic mice. […]
as §2

[5] = system: human having pancreatitis; test: Treating a human identified as having pancreatitis (Example 2); format: in vivo; conditions: 112 mg dabigatran or 150 mg dabigatran etexilate at least twice a day for one to three weeks
Method: A human identified as having pancreatitis is administered 112 mg of dabigatran or 150 mg of dabigatran etexilate at least twice a day for one to three weeks.

Compound | pancreatic edema (pancreas/body weight ratio) ([1]; oral gavage two hours before six hourly caerulein injections (100 μg/kg×6)) | serum amylase levels ([1]; oral gavage two hours before six hourly caerulein injections) | pancreatic edema (pancreas/body weight ratio) ([2]; pretreatment before caerulein (100 μg/kg×6)) | pancreatic histology ([2]; pretreatment before caerulein) | serum amylase levels ([2]; pretreatment before caerulein) | progression of AP to CP (pancreas/body weight ratio, histology) [3] | development of severe AP (pancreas edema, serum amylase) [4] | severity of the pancreatitis [5]
CN(C)C(=O)COC(=O)Cc1ccc(OC(=O)c2ccc(NC(=N)N)cc2)cc1 [Camostat, Camostat mesilate] | moderately reduce | no significant effect | only slightly improved | only slightly improved | only slightly improved | no positive effects on preventing the development of CP | no ability to prevent the development of severe AP | –
CCCCCCOC(=O)N=C(N)c1ccc(NCc2nc3cc(C(=O)N(CCC(=O)OCC)c4ccccn4)ccc3n2C)cc1 [dabigatran etexilate] | – | – | – | – | – | – | – | reduction in the severity of the pancreatitis
